One data set concerns SU-DHL-4 cells. In words: Tumor cell proliferation IC50 (CCK-8), SU-DHL-4. Conditions: Homo sapiens, SU-DHL-4, 72 h, read-out: IC50 for inhibiting the proliferation of tumor cells, SU-DHL-4.
A further data set relates to MM.1R cells. In words: Tumor cell proliferation IC50 (CCK-8), MM.1R. The note with it: Homo sapiens, 72 h, read-out: IC50 for inhibiting the proliferation of tumor cells, MM.1R.
A further data set concerns MDA-MB-231 cells. In words: Tumor cell proliferation IC50 (CCK-8), MDA-MB-231. The note with it: Homo sapiens, MDA-MB-231, 96 h, read-out: IC50 for inhibiting the proliferation of tumor cells, MDA-MB-231.
In a further data set the test system is SU-DHL-6 cells. The data set is described as follows: Tumor cell proliferation IC50 (CCK-8), SU-DHL-6. Conditions: Homo sapiens, SU-DHL-6, 72 h, read-out: IC50 for inhibiting the proliferation of tumor cells, SU-DHL-6.
The subject of the next data set is CCRF-CEM cells. In words: Tumor cell proliferation IC50 (CCK-8), CCRF-CEM.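 Note: cell viability measured with CCK-8 reagent after compound treatment, IC50 taken from plotted growth inhibition curves.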 Conditions: Homo sapiens, 96 h, read-out: IC50 for inhibiting the proliferation of tumor cells, CCRF-CEM.
In a further data set the target is GSPT1 protein (Homo sapiens (Human), UniProt P15170+Q96SW2). In words: Western-blot assay of substrate protein degradation in hPBMC, GSPT1. The class given is cell-based. Conditions: for residual substrate protein level, GSPT1: hPBMC cells, compound 500 nM, 24 hours, Western blot. Background: Immunoblotting shows a protein as a band on a membrane.
The next data set concerns Kasumi-1 cells. The data set is described as follows: Tumor cell proliferation IC50 (CCK-8), Kasumi-1. The note with it: Homo sapiens, Kasumi 1, 72 h, read-out: IC50 for inhibiting the proliferation of tumor cells, Kasumi-1.
Data set [1] concerns the target human Cereblon WT GST-tagged protein (Homo sapiens (Human), UniProt Q96SW2). The data set is described as follows: CRBN-binding affinity, HTRF (CEREBLON BINDING kit). The gist of the method:
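GST-tagged human WT Cereblon incubated with compound, then Thalidomide-Re tracer and anti-GST Eu antibody added. Displacement read by HTRF, reported as CRBN binding inhibition rate against blank control wells without protein.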
(In TR-FRET formats the signal depends on donor and acceptor labels being close together.)

For a further data set, the target named is IKZF1 protein (Homo sapiens (Human), UniProt Q13422+Q96SW2). In words: Western-blot assay of substrate protein degradation in hPBMC, IKZF1. In kind it is cell-based. The note with it: for residual substrate protein level, IKZF1: hPBMC cells, compound 500 nM, 24 hours, Western blot.
In a further data set the test system is Ramos cells. In words: Tumor cell proliferation IC50 (CCK-8), Ramos. Conditions: Homo sapiens, 72 h, read-out: IC50 for inhibiting the proliferation of tumor cells, Ramos.
Data set [2] in a line: Pharmacokinetic study, oral administration, mouse plasma. In kind it is in vivo, mice. Conditions: p.o. 30 mg/kg. The protocol: The experimental animals used can be those commonly used in pharmacokinetic experiments, e.g., adult and healthy rodents (e.g., mice, rats (such as Sprague-Dawley (SD) rats), guinea pigs) or non-rodents (rabbits, dogs, and monkeys). In the present disclosure, mice were used as the experimental animals.
The experimental animals were divided into two groups: a control group (for collecting blank plasma) and an orally administered group (dosed at 10 mg/kg or 30 mg/kg). Blood samples were collected at predetermined sampling time points after administration, such as 0.25 h, 0.5 h, 1 h, 2 h, 4 h, 8 h, and 24 h post-dosing. Blank plasma was collected from the control group.
Plasma samples were preprocessed before analysis: 10 μL of 50% acetonitrile and 200 μL of internal standard solution (containing 50 ng/mL dexamethasone in acetonitrile) were added to 10 μL of plasma samples. For the blank control group, the same volume of acetonitrile was added instead of the internal standard. The processed samples were vortexed, centrifuged, and the supernatant was taken for LC-MS/MS injection analysis.
After preparing standard curves and quality control (QC) samples, the concentrations of the compounds in the plasma samples were determined by LC-MS/MS analysis. Based on the plasma concentration data obtained from LC-MS/MS analysis, the pharmacokinetic parameters of the test compounds were calculated using the non-compartmental model in the pharmacokinetic calculation software WinNonlin v8.1.

The next data set has as its system Mino cells. In words: Tumor cell proliferation IC50 (CCK-8), Mino.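 Note: cell viability assessed with CCK-8 reagent after compound exposure, IC50 derived from plotted growth inhibition curves.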 The note with it: Homo sapiens, 72 h, read-out: IC50 for inhibiting the proliferation of tumor cells, Mino.
In another data set the test system is TMD8 cells. In words: Tumor cell proliferation IC50 (CCK-8), TMD8. The note with it: Homo sapiens, TMD8, 72 h, read-out: IC50 for inhibiting the proliferation of tumor cells, TMD8.
Another data set concerns MM.1S cells. In words: Tumor cell proliferation IC50 (CCK-8), MM.1S.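 Note: viability of cultured cells read by CCK-8 reagent after compound exposure, growth inhibition curves fitted to derive IC50.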 The note with it: Homo sapiens, MM1.S, 72 h, read-out: IC50 for inhibiting the proliferation of tumor cells, MM.1S.
The subject of another data set is SW620 cells. In words: Tumor cell proliferation IC50 (CCK-8), SW620. The note with it: Homo sapiens, SW-620, 96 h, read-out: IC50 for inhibiting the proliferation of tumor cells, SW620.
Another data set deals with IKZF3 protein (Homo sapiens (Human), UniProt Q96SW2+Q9UKT9). The data set is described as follows: Western-blot assay of substrate protein degradation in hPBMC, IKZF3. The class given is cell-based. Conditions: for residual substrate protein level, IKZF3: hPBMC cells, compound 500 nM, 24 hours, Western blot.
For the next data set, the system named is MV-4-11 cells. The data set is described as follows: Tumor cell proliferation IC50 (CCK-8), MV-4-11. Conditions: Homo sapiens, MV4-11, 96 h, read-out: IC50 for inhibiting the proliferation of tumor cells, MV-4-11.
A further data set relates to Daudi cells. In words: Tumor cell proliferation IC50 (CCK-8), Daudi.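 Note: cell viability read with CCK-8 reagent after compound exposure of Daudi cells, IC50 derived from plotted growth inhibition curves.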 The note with it: Homo sapiens, read-out: IC50 for inhibiting the proliferation of tumor cells, Daudi.

The values below come from patent US20260028326A1, “COMPOUND BASED ON ISOINDOLINE-SUBSTITUTED GLUTARIMIDE BACKBONE AND USE THEREOF” (GLUETACS THERAPEUTICS (SHANGHAI) CO., LTD., priority 2022, published 2026).

human Cereblon WT GST-tagged protein, sequence (Q96SW2 whole entry): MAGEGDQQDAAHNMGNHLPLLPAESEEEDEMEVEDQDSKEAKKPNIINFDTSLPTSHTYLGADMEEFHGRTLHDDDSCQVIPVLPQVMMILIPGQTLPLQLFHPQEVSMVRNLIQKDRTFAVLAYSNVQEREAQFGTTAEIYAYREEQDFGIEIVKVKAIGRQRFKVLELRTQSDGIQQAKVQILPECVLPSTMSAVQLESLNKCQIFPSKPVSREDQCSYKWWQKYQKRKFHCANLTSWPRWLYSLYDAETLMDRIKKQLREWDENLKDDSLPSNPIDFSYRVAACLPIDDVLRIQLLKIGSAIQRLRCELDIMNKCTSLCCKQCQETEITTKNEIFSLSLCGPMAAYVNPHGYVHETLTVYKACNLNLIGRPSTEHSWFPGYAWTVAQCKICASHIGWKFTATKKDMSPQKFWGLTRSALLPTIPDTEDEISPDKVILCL
IKZF1 protein, sequence (Q13422 whole entry): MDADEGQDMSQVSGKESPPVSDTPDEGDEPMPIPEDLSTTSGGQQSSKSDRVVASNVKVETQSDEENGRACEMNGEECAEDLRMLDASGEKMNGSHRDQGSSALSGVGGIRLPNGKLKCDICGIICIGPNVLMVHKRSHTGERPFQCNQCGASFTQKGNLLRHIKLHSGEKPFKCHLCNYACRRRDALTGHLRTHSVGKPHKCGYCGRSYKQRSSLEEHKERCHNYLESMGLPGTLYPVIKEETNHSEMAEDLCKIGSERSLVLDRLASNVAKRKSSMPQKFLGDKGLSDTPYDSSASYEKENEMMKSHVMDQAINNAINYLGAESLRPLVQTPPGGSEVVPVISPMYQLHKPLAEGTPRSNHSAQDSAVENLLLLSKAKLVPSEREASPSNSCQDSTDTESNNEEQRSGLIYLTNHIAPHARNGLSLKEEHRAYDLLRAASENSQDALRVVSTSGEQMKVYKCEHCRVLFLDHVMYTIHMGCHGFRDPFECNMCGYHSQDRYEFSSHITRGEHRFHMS
IKZF1 protein, sequence (Q96SW2 whole entry): as the sequence (Q96SW2 whole entry) above
IKZF1 protein, sequence (Q16531 whole entry partner): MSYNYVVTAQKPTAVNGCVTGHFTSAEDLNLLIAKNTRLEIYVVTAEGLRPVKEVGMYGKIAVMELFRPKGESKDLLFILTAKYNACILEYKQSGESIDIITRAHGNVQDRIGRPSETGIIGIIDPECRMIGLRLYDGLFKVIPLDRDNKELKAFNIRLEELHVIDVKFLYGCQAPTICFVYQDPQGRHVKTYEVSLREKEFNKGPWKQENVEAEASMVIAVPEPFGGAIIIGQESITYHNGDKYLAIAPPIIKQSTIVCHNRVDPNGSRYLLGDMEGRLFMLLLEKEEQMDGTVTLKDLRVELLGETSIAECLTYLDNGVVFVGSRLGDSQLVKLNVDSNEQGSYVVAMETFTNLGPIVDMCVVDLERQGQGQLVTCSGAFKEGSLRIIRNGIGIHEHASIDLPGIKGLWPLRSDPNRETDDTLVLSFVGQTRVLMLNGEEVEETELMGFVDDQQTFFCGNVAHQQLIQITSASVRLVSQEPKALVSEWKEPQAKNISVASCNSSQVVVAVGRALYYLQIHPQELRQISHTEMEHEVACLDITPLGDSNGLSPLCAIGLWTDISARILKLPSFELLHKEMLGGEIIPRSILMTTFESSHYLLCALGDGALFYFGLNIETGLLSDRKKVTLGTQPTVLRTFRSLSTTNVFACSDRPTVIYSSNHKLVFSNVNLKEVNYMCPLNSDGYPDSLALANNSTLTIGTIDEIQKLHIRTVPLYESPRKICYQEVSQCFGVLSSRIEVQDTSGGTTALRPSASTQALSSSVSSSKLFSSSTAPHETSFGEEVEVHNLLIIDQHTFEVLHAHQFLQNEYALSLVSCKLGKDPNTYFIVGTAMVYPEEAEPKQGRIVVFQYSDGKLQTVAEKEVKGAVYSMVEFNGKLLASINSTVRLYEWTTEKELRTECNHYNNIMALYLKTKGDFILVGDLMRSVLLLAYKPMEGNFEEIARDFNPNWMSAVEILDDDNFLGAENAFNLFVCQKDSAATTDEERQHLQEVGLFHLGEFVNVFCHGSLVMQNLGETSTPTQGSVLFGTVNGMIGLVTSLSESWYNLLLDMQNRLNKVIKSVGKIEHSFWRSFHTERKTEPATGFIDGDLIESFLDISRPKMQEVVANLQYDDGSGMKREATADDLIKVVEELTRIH
GSPT1 protein, sequence (P15170 whole entry): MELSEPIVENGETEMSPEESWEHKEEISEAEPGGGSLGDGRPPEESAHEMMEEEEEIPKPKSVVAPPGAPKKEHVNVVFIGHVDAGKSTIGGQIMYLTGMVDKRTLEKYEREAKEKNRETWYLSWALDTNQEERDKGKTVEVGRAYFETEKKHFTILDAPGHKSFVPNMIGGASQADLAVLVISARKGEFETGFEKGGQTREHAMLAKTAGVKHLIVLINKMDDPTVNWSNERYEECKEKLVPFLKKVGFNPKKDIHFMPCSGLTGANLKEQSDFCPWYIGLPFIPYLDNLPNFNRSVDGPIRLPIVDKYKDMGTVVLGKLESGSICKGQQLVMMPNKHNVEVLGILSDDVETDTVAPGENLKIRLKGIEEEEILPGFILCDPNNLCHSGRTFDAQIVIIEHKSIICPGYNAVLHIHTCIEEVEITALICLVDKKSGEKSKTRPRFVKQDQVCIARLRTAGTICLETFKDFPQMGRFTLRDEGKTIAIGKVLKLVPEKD
GSPT1 protein, sequence (Q96SW2 whole entry): as the sequence (Q96SW2 whole entry) above
GSPT1 protein, sequence (Q16531 whole entry partner): as the sequence (Q16531 whole entry partner) above
IKZF3 protein, sequence (Q9UKT9 whole entry): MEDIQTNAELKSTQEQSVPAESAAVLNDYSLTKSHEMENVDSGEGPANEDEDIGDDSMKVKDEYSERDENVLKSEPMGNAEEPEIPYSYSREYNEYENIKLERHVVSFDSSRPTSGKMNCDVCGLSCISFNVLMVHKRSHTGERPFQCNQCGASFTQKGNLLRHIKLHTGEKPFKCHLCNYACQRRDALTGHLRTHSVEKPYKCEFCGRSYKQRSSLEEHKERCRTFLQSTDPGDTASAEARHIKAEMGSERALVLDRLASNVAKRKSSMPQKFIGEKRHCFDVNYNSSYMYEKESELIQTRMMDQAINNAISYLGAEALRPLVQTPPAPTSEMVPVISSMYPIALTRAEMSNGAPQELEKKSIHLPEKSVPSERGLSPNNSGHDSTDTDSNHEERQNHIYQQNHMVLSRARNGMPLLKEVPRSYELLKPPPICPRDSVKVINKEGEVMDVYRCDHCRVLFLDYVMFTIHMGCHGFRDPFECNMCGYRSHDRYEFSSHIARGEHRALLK
IKZF3 protein, sequence (Q96SW2 whole entry): as the sequence (Q96SW2 whole entry) above
IKZF3 protein, sequence (Q16531 whole entry partner): as the sequence (Q16531 whole entry partner) above
Protocol for CCRF-CEM cells: (§1) The tumor cells used herein were cultured in a cell culture medium listed in table A at 37° C. in an incubator with 5% CO2.
(§2) After the cells were treated with the compounds of the present disclosure for a period of time, the cell viability detection reagent was added to the culture medium for cell viability assessment according to the instructions provided with the CCK-8 kit. […] The growth inhibition of the compounds of the present disclosure on cells was plotted by Prism Graphpad software, and the IC50 values of the compounds of the present disclosure were calculated therefrom.
Protocol for Kasumi-1 cells: as §1, §2
Protocol for MDA-MB-231 cells: (§3) Prior to experimentation, all cells used were correctly identified by STR profiling, and tested negative for mycoplasma through routine screenings.
as §2
Protocol for MM.1R cells: as §1, §2
Protocol for MM.1S cells: as §1, §2
Protocol for MV-4-11 cells: as §1, §2
Protocol for Mino cells: as §1, §2
Protocol for Ramos cells: as §1, §2
Protocol for SU-DHL-4 cells: as §3, §2
Protocol for SU-DHL-6 cells: as §3, §2
Protocol for SW620 cells: as §1, §2
Protocol for TMD8 cells: as §1, §2

One may read the AUC(0-t) as the area under the concentration-time curve up to a stated or last time point. A higher AUC(0-t) goes with more exposure. For `O=C1CCC(N2Cc3cc(CN4CCN(Cc5ccccc5-c5ccc(Cl)cc5)CC4)ccc3C2=O)C(=O)N1` (stereo not shown) [GT-03355, 3-(5-((4-((4′-chloro-[1,1′-biphenyl]-2-yl)methyl)piperazin-1-yl)methyl)-1-oxoisoindolin-2-yl)piperidine-2,6-dione], the IC50 with SU-DHL-4 cells was 100 to 500 nM; in the data set on MM.1R cells, less than 5 nM; in the data set with MDA-MB-231 cells, less than 5 nM; in the data set with SU-DHL-6 cells it was 10 to 50 nM; in the data set on CCRF-CEM cells, less than 5 nM; in the data set with Kasumi-1 cells it was less than 5 nM. In addition, the IC50 in [1] was 770 nM; in the data set on Ramos cells, 5 to 10 nM; in the data set on Mino cells it was less than 5 nM; in the data set with TMD8 cells, less than 5 nM; in the data set with MM.1S cells, less than 5 nM; in the data set on SW620 cells, 5 to 10 nM. The “residual substrate protein level, GSPT1” value on GSPT1 protein was “A (A represents a residual substrate protein level of <50%)”. The “residual substrate protein level, IKZF1” value on IKZF1 protein is “A (A represents a residual substrate protein level of <50%)”. Further, the exposure AUC(0-t) in [2] was more than 500 ng·h/mL. For the same compound, at IKZF3 protein, the “residual substrate protein level, IKZF3” value is on record as “A (A represents a residual substrate protein level of <50%)”.

Turning to `O=C1CCC(N2Cc3cc(-c4ccc(CN5CCN(Cc6ccccc6-c6ccc(Cl)cc6)CC5)cc4)ccc3C2=O)C(=O)N1` (stereo not shown) [GT-03356, 3-(5-(4-((4-((4′-chloro-[1,1′-biphenyl]-2-yl)methyl)piperazin-1-yl)methyl)phenyl)-1-oxoisoindolin-2-yl)piperidine-2,6-dione], the IC50 fell in the range of 100 to 500 nM in the data set on SU-DHL-6 cells, 1000 to 5000 nM in the data set on CCRF-CEM cells and 5000 to 10000 nM in the data set with Ramos cells.

For the compound `CC1(C)CCC(CN2CCN(Cc3ccc4c(c3F)CN(C3CCC(=O)NC3=O)C4=O)CC2)=C(c2ccc(Cl)cc2)C1` (stereo not shown) [GT-03468, 3-(5-((4-((4′-chloro-5,5-dimethyl-3,4,5,6-tetrahydro-[1,1′-biphenyl]-2-yl)methyl)piperazin-1-yl)methyl)-4-fluoro-1-oxoisoindolin-2-yl)piperidine-2,6-dione], the IC50 with SU-DHL-4 cells is 5000 to 10000 nM; with MM.1R cells it was 10 to 50 nM; in the data set on MDA-MB-231 cells it was 10 to 50 nM; in the data set on CCRF-CEM cells it was 10 to 50 nM; in the data set with Kasumi-1 cells it was 10 to 50 nM; in [1], 2960 nM. In addition, the IC50 in the data set on Ramos cells lay within 100 to 500 nM; in the data set on Mino cells, 100 to 500 nM; in the data set on TMD8 cells, 100 to 500 nM; in the data set on MM.1S cells, 10 to 50 nM; in the data set on SW620 cells, 10 to 50 nM. Also, the “residual substrate protein level, GSPT1” value at GSPT1 protein is recorded as “A (A represents a residual substrate protein level of <50%)”. The “residual substrate protein level, IKZF1” value on IKZF1 protein is recorded as “A (A represents a residual substrate protein level of <50%)”. Moreover, in [2], the AUC(0-t) was more than 500 ng·h/mL. For the same compound, on IKZF3 protein, the “residual substrate protein level, IKZF3” value was “A (A represents a residual substrate protein level of <50%)”.

For the compound `CC1(C)CCC(CN2CCN(Cc3cc4c(cc3F)C(=O)N(C3CCC(=O)NC3=O)C4)CC2)=C(c2ccc(Cl)cc2)C1` (stereo not shown) [GT-03578, 3-(5-((4-((4′-chloro-5,5-dimethyl-3,4,5,6-tetrahydro-[1,1′-biphenyl]-2-yl)methyl)piperazin-1-yl)methyl)-6-fluoro-1-oxoisoindolin-2-yl)piperidine-2,6-dione], the IC50 was 100 to 500 nM with SU-DHL-4 cells; 5 to 10 nM with MM.1R cells; less than 5 nM in the data set with MDA-MB-231 cells; 1000 to 5000 nM with SU-DHL-6 cells; less than 5 nM in the data set with CCRF-CEM cells; less than 5 nM in the data set on Kasumi-1 cells. For the same compound, the IC50 in [1] is 1830 nM; with Ramos cells, 10 to 50 nM; in the data set with TMD8 cells it was 10 to 50 nM; in the data set on MM.1S cells, less than 5 nM. The “residual substrate protein level, GSPT1” value on GSPT1 protein is given as “A (A represents a residual substrate protein level of <50%)”. Also, on IKZF1 protein, the “residual substrate protein level, IKZF1” value is listed as “A (A represents a residual substrate protein level of <50%)”. The area under the curve AUC(0-t) in data set [2] was more than 500 ng·h/mL. Besides, the “residual substrate protein level, IKZF3” value at IKZF3 protein is listed as “A (A represents a residual substrate protein level of <50%)”.

On to `Nc1cccc2c1C(=O)N(C1CCC(=O)NC1=O)C2=O` (stereo not shown) [pomalidomide, reference compound], for which the IC50 in the data set on SU-DHL-4 cells, with MM.1R cells, with MV-4-11 cells, in the data set on MDA-MB-231 cells, with SU-DHL-6 cells and with CCRF-CEM cells was more than 10000 nM each time. For the same compound, the IC50 was 5000 to 10000 nM in the data set on Daudi cells; more than 10000 nM with Kasumi-1 cells; 1000 to 5000 nM with Ramos cells; 1000 to 5000 nM in the data set with Mino cells; 500 to 1000 nM in the data set with TMD8 cells; 100 to 500 nM in the data set on MM.1S cells. Besides, the IC50 in the data set on SW620 cells was more than 10000 nM. The “degradation of GSPT1 protein (Western blot, FIG. 1)” value on GSPT1 protein (hPBMC, 24 h, 50 nM) was “cannot degrade”. Moreover, at IKZF1 protein (hPBMC, 24 h, 50 nM), the “degradation of IKZF1 protein (Western blot, FIG. 1)” value was “cannot degrade”. Moreover, the “degradation of IKZF3 protein (Western blot, FIG. 1)” value on IKZF3 protein (hPBMC, 24 h, 50 nM) is given as “cannot degrade”.
